Target: DNA topoisomerase 2-alpha (Homo sapiens, UniProt P11388)
Test: Human Topoisomerase IIalpha Decatenation Inhibition Assay
Protocol: The samples were incubated for 15 minutes at 37° C. before the addition of 4 μL of a stop buffer containing 5% sarkosyl, 0.25% bromophenol blue, and 25% glycerol. The reactions were then analyzed by electrophoresis in 1% agarose gels containing […] ethidium bromide before being photographed under UV light.

Sequence of DNA topoisomerase 2-alpha (P11388 whole entry): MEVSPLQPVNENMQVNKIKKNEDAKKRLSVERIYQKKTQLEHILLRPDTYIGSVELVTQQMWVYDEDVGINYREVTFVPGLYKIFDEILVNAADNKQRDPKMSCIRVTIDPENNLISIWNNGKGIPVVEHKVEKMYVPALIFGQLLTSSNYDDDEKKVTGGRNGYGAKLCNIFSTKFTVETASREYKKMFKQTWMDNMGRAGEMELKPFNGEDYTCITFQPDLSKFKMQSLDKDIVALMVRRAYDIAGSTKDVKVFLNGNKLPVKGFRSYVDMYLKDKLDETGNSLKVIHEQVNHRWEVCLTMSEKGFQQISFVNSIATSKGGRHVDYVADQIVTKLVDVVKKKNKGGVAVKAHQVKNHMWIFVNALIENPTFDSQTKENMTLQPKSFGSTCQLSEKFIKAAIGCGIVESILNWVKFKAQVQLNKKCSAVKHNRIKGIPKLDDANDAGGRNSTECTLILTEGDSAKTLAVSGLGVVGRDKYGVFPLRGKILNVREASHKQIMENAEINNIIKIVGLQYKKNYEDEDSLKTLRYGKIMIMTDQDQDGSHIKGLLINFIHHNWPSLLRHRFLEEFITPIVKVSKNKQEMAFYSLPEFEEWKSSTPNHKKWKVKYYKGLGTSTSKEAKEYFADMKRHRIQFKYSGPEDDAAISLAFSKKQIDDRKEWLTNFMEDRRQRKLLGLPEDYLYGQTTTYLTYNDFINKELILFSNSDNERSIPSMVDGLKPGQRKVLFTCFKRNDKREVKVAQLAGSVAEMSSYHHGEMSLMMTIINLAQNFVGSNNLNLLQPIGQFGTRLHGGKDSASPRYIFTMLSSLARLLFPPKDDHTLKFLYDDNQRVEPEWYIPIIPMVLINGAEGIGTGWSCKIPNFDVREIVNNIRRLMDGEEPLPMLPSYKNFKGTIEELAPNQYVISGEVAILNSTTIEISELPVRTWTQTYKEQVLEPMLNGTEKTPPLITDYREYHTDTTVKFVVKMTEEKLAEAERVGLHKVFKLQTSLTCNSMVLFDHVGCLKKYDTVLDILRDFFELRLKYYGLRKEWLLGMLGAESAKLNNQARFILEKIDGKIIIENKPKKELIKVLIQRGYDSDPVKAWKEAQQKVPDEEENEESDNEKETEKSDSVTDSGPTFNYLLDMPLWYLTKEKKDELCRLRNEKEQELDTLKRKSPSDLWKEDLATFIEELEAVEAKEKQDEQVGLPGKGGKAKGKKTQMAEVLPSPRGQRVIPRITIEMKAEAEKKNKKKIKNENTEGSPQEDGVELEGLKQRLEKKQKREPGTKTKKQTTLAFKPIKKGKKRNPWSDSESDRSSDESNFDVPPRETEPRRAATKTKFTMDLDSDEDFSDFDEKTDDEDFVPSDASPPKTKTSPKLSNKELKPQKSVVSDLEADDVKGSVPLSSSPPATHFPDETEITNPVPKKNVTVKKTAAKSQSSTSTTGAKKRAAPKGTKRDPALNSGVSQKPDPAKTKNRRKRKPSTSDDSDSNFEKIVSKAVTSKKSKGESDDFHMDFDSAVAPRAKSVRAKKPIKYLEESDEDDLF

| IC50 | Compound |
| --- | --- |
| 2920 nM | Nc1ccc2c(c1)Oc1c(N3CCNCC3)c(F)cc3c(=O)c(C(=O)O)cn-2c13 [US10266550, Compound 11b] |
| 5850 nM | CN1CCN(c2c(F)cc3c(=O)c(C(=O)O)cn4c3c2Oc2cc(N)ccc2-4)CC1 [US10266550, Compound 11a] |
| 2920 nM | N[C@H]1CCN(c2c(F)cc3c(=O)c(C(=O)O)cn4c3c2Oc2cc([N+](=O)[O-])ccc2-4)C1 [US10266550, Compound 16] |

— BindingDB's records for patent US10266550 (The Florida International University Board of Trustees, 2019)
